Results published in ChEMBL document CHEMBL1201862, “PubChem BioAssay data set” (2004).
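Five concentrations, 48 hours, 96-well plates. Abbreviation: GI50, concentration required for 50% inhibition of growth.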 Activity calls are given as the source filed them. Rule as the data show it: active = GI50 up to about 1.1 µM and inactive = higher.

Experiments:
Test in all cases: growth of human tumour cells (NCI), 48 h
KM-20L2 = tested on: KM-20L2
HCT-15 = tested on: HCT-15
K562 = tested on: K562
HT-29 = tested on: HT-29
UACC-62 = tested on: UACC-62
CCRF-CEM = tested on: CCRF-CEM
A549 = tested on: A549
RXF 393 = tested on: RXF 393
SK-MEL-28 = tested on: SK-MEL-28
UACC-257 = tested on: UACC-257
LOX IMVI = tested on: LOX IMVI
NCI-H23 = tested on: NCI-H23
SF-268 = tested on: SF-268
786-0 = tested on: 786-0
RPMI-8226 = tested on: RPMI-8226
OVCAR-3 = tested on: OVCAR-3
IGROV-1 = tested on: IGROV-1
TK-10 = tested on: TK-10
MOLT-4 = tested on: MOLT-4
HL-60 = tested on: HL-60
OVCAR-8 = tested on: OVCAR-8
HOP-18 = tested on: HOP-18
SNB-19 = tested on: SNB-19
OVCAR-5 = tested on: OVCAR-5
M19-MEL = tested on: M19-MEL
U-251 = tested on: U-251
A498 = tested on: A498
SK-OV-3 = tested on: SK-OV-3
ACHN = tested on: ACHN
CAKI-1 = tested on: CAKI-1
COLO 205 = tested on: COLO 205
SF-295 = tested on: SF-295
DMS-273 = tested on: DMS-273
SNB-75 = tested on: SNB-75
HOP-92 = tested on: HOP-92
SK-MEL-5 = tested on: SK-MEL-5
DLD-1 = tested on: DLD-1
OVCAR-4 = tested on: OVCAR-4
SW-620 = tested on: SW-620
NCI-H522 = tested on: NCI-H522
NCI-H460 = tested on: NCI-H460
SN12C = tested on: SN12C
HCC 2998 = tested on: HCC 2998
XF498 = tested on: XF498
SF-539 = tested on: SF-539
SK-MEL-2 = tested on: SK-MEL-2
M14 = tested on: M14
KM12 = tested on: KM12
EKVX = tested on: EKVX
UO-31 = tested on: UO-31
Malme-3M = tested on: Malme-3M
LXFL 529 = tested on: LXFL 529
SNB-78 = tested on: SNB-78
HOP-62 = tested on: HOP-62
DMS-114 = tested on: DMS-114
NCI-H226 = tested on: NCI-H226
SR = tested on: SR
HCT-116 = tested on: HCT-116

C[C@@H](NS(=O)(=O)c1ccc(NC(=O)c2ccccc2)cc1)C(=O)O
GI50 (KM-20L2): > 100 µM (inactive) | GI50 (HCT-15): > 100 µM | GI50 (K562): > 100 µM (inactive) | GI50 (HT-29): > 100 µM (inactive) | GI50 (UACC-62): > 100 µM (inactive) | GI50 (CCRF-CEM): > 100 µM (inactive) | GI50 (A549): > 100 µM (inactive) | GI50 (RXF 393): > 100 µM (inactive) | GI50 (SK-MEL-28): > 100 µM (inactive) | GI50 (UACC-257): > 100 µM (inactive) | GI50 (LOX IMVI): > 100 µM (inactive) | GI50 (NCI-H23): > 100 µM (inactive) | GI50 (SF-268): > 100 µM (inactive) | GI50 (786-0): > 100 µM (inactive) | GI50 (RPMI-8226): > 100 µM (inactive) | GI50 (OVCAR-3): > 100 µM (inactive) | GI50 (IGROV-1): > 100 µM (inactive) | GI50 (TK-10): > 100 µM (inactive) | GI50 (MOLT-4): > 100 µM (inactive) | GI50 (HL-60): > 100 µM (inactive) | GI50 (OVCAR-8): > 100 µM (inactive) | GI50 (HOP-18): > 100 µM (inactive) | GI50 (SNB-19): > 100 µM (inactive) | GI50 (OVCAR-5): > 100 µM (inactive) | GI50 (M19-MEL): > 100 µM (inactive) | GI50 (U-251): > 100 µM (inactive) | GI50 (A498): > 100 µM (inactive) | GI50 (SK-OV-3): > 100 µM (inactive) | GI50 (ACHN): > 100 µM (inactive) | GI50 (CAKI-1): > 100 µM (inactive) | GI50 (COLO 205): > 100 µM (inactive) | GI50 (SF-295): > 100 µM (inactive) | GI50 (DMS-273): > 100 µM (inactive) | GI50 (SNB-75): > 100 µM (inactive) | GI50 (HOP-92): > 100 µM (inactive) | GI50 (SK-MEL-5): > 100 µM (inactive) | GI50 (DLD-1): > 100 µM (inactive) | GI50 (OVCAR-4): > 100 µM (inactive) | GI50 (SW-620): > 100 µM (inactive) | GI50 (NCI-H522): > 100 µM (inactive) | GI50 (NCI-H460): > 100 µM (inactive) | GI50 (SN12C): > 100 µM (inactive) | GI50 (HCC 2998): > 100 µM (inactive) | GI50 (XF498): > 100 µM (inactive) | GI50 (SF-539): > 100 µM (inactive) | GI50 (SK-MEL-2): > 100 µM (inactive) | GI50 (M14): > 100 µM (inactive) | GI50 (KM12): > 100 µM (inactive) | GI50 (EKVX): > 100 µM (inactive) | GI50 (UO-31): > 100 µM (inactive) | GI50 (Malme-3M): > 100 µM (inactive) | GI50 (LXFL 529): > 100 µM (inactive)

Nc1nc(SCc2ccc([N+](=O)[O-])cc2)nc2c1ncn2C1OC(CO)C(O)C1O (configuration not stated)
GI50 (KM-20L2): > 100 µM (inactive) | GI50 (HCT-15): > 100 µM | GI50 (K562): > 100 µM (inactive) | GI50 (HT-29): > 100 µM (inactive) | GI50 (SNB-78): > 100 µM (inactive) | GI50 (CCRF-CEM): > 100 µM (inactive) | GI50 (A549): > 100 µM (inactive) | GI50 (RXF 393): > 100 µM (inactive) | GI50 (SK-MEL-28): > 100 µM (inactive) | GI50 (UACC-257): > 100 µM (inactive) | GI50 (LOX IMVI): > 100 µM (inactive) | GI50 (NCI-H23): > 100 µM (inactive) | GI50 (HOP-62): > 100 µM (inactive) | GI50 (SF-268): > 100 µM (inactive) | GI50 (786-0): > 100 µM (inactive) | GI50 (RPMI-8226): > 100 µM (inactive) | GI50 (OVCAR-3): > 100 µM (inactive) | GI50 (IGROV-1): > 100 µM (inactive) | GI50 (TK-10): > 100 µM (inactive) | GI50 (MOLT-4): > 100 µM (inactive) | GI50 (HL-60): > 100 µM (inactive) | GI50 (OVCAR-8): > 100 µM (inactive) | GI50 (SNB-19): > 100 µM (inactive) | GI50 (OVCAR-5): > 100 µM (inactive) | GI50 (M19-MEL): > 100 µM (inactive) | GI50 (U-251): > 100 µM (inactive) | GI50 (A498): > 100 µM (inactive) | GI50 (ACHN): > 100 µM (inactive) | GI50 (COLO 205): > 100 µM (inactive) | GI50 (SF-295): > 100 µM (inactive) | GI50 (DMS-114): > 100 µM (inactive) | GI50 (DMS-273): > 100 µM (inactive) | GI50 (NCI-H226): > 100 µM (inactive) | GI50 (SK-MEL-5): > 100 µM (inactive) | GI50 (DLD-1): > 100 µM (inactive) | GI50 (SR): > 100 µM (inactive) | GI50 (OVCAR-4): > 100 µM (inactive) | GI50 (SW-620): > 100 µM (inactive) | GI50 (NCI-H522): 89.5 µM (inactive) | GI50 (NCI-H460): > 100 µM (inactive) | GI50 (SN12C): 96.6 µM (inactive) | GI50 (HCC 2998): > 100 µM (inactive) | GI50 (XF498): > 100 µM (inactive) | GI50 (KM12): > 100 µM (inactive) | GI50 (EKVX): > 100 µM (inactive) | GI50 (UO-31): > 100 µM (inactive) | GI50 (Malme-3M): > 100 µM (inactive) | GI50 (LXFL 529): 78.5 µM (inactive) | GI50 (HCT-116): > 100 µM (inactive)

Clc1ccc(CCn2cncn2)c(Cl)c1
GI50 (KM-20L2): > 100 µM (inactive) | GI50 (HCT-15): > 100 µM | GI50 (K562): > 100 µM (inactive) | GI50 (HT-29): > 100 µM (inactive) | GI50 (UACC-62): > 100 µM (inactive) | GI50 (SNB-78): > 100 µM (inactive) | GI50 (CCRF-CEM): > 100 µM (inactive) | GI50 (A549): > 100 µM (inactive) | GI50 (SK-MEL-28): > 100 µM (inactive) | GI50 (UACC-257): > 100 µM (inactive) | GI50 (NCI-H23): > 100 µM (inactive) | GI50 (HOP-62): > 100 µM (inactive) | GI50 (SF-268): > 100 µM (inactive) | GI50 (786-0): > 100 µM (inactive) | GI50 (OVCAR-3): > 100 µM (inactive) | GI50 (IGROV-1): > 100 µM (inactive) | GI50 (TK-10): > 100 µM (inactive) | GI50 (MOLT-4): > 100 µM (inactive) | GI50 (HL-60): > 100 µM (inactive) | GI50 (OVCAR-8): > 100 µM (inactive) | GI50 (HOP-18): 44.6 µM (inactive) | GI50 (SNB-19): > 100 µM (inactive) | GI50 (OVCAR-5): > 100 µM (inactive) | GI50 (M19-MEL): > 100 µM (inactive) | GI50 (U-251): > 100 µM (inactive) | GI50 (SK-OV-3): > 100 µM (inactive) | GI50 (ACHN): > 100 µM (inactive) | GI50 (CAKI-1): > 100 µM (inactive) | GI50 (COLO 205): > 100 µM (inactive) | GI50 (SF-295): > 100 µM (inactive) | GI50 (DMS-114): > 100 µM (inactive) | GI50 (DMS-273): > 100 µM (inactive) | GI50 (SNB-75): > 100 µM (inactive) | GI50 (HOP-92): > 100 µM (inactive) | GI50 (NCI-H226): > 100 µM (inactive) | GI50 (SK-MEL-5): > 100 µM (inactive) | GI50 (DLD-1): > 100 µM (inactive) | GI50 (SR): > 100 µM (inactive) | GI50 (OVCAR-4): > 100 µM (inactive) | GI50 (SW-620): > 100 µM (inactive) | GI50 (NCI-H522): > 100 µM (inactive) | GI50 (NCI-H460): > 100 µM (inactive) | GI50 (SN12C): > 100 µM (inactive) | GI50 (HCC 2998): > 100 µM (inactive) | GI50 (SF-539): > 100 µM (inactive) | GI50 (M14): > 100 µM (inactive) | GI50 (KM12): > 100 µM (inactive) | GI50 (EKVX): > 100 µM (inactive) | GI50 (UO-31): > 100 µM (inactive) | GI50 (LXFL 529): > 100 µM (inactive) | GI50 (HCT-116): > 100 µM (inactive)
